Laboratory results as given in ChEMBL document CHEMBL5576092, “Iron(III) Binding Properties of PF1140, a Fungal N-Hydroxypyridone, and Activity against Mycoplasma genitalium” (J Nat Prod, 2024).
In brackets after ≈: the same amount, converted by molar mass. Values belong to the molecule of their own block, whether it stands above or below them. Activity calls are given as the source filed them. The calls are words filed in the database; no cut-off is given here.

What was measured:
Mycoplasma genitalium [1] = test: Antibacterial activity against Mycoplasma genitalium G37 assessed as bacterial growth inhibition incubated for 7 days by microbroth dilution assay; assay type: functional; conditions: Mycoplasmoides genitalium, G37, 168 h; time 7 day
[2] = Metal chelating activity assessed as compound-calcium complex formation by UV-Vis spectrophotometric analysis
[3] = Selectivity index, ratio of IC50 for human HeLa cells to IC50 for Mycoplasma genitalium G37; assay type: toxicity; conditions: read-out: Ratio IC50
Mycoplasma genitalium [4] = test: Antibacterial activity against Mycoplasma genitalium G37 assessed as bacterial growth inhibition at 0.29 to 0.58 uM incubated for 7 days by time-kill assay; assay type: functional, organism-based; conditions: Mycoplasmoides genitalium, dose 0.29-0.58 µM, time 7.0 day
Mycoplasma genitalium [5] = test: Antibacterial activity against Mycoplasma genitalium assessed as bacterial growth inhibition in SP-4 broth medium supplemented with TPEN at 0.64 uM measured after 2 hrs by absorbance based analysis; assay type: functional, organism-based; conditions: Mycoplasmoides genitalium
Mycoplasma genitalium [6] = test: Antibacterial activity against Mycoplasma genitalium Sea-1 assessed as bacterial growth inhibition incubated for 7 days by microbroth dilution assay; assay type: functional; conditions: Mycoplasmoides genitalium, Sea-1, 168 h; time 7 day
[7] = Metal chelating activity assessed as compound-Nickel complex formation by UV-Vis spectrophotometric analysis
Mycoplasma genitalium [8] = test: Antibacterial activity against Mycoplasma genitalium assessed as bacterial growth inhibition in SP-4 broth medium supplemented with DPP and ferric chloride at 0.64 uM measured after 2 hrs by absorbance based analysis; assay type: functional, organism-based; conditions: Mycoplasmoides genitalium
Mycoplasma genitalium [9] = test: Potentiation of hydrogen peroxide sensitivity in Mycoplasma genitalium assessed as reduction in bactericidal concentration of hydrogen peroxide at 0.32 uM measured after 7 days by checkerboard technique (reference value: 7 mM); assay type: functional, Mycoplasmoides genitalium; conditions: time 7 day
[10] = Metal chelating activity assessed as compound-zinc complex formation by UV-Vis spectrophotometric analysis
[11] = Metal chelating activity assessed as compound-magnesium complex formation by UV-Vis spectrophotometric analysis
Mycoplasma genitalium [12] = test: Antibacterial activity against Mycoplasma genitalium G37 assessed as bacterial growth inhibition at 1.16 uM incubated for 7 days by time-kill assay relative to control; assay type: functional, Mycoplasmoides genitalium; set-up: scale not given: the % may be the effect or the level left; conditions: time 7 day
Mycoplasma genitalium [13] = test: Bacteriostatic activity against Mycoplasma genitalium G37 assessed as bacterial growth inhibition at 4 times MIC measured after 7 days by time-kill assay relative to control; assay type: functional, Mycoplasmoides genitalium; set-up: scale not given: the % may be the effect or the level left; conditions: time 7 day
Mycoplasma genitalium [14] = test: Antibacterial activity against Mycoplasma genitalium M2282 assessed as bacterial growth inhibition incubated for 7 days by microbroth dilution assay; assay type: functional; conditions: Mycoplasmoides genitalium, M2282, 168 h; time 7 day
Mycoplasma genitalium [15] = test: Antibacterial activity against Mycoplasma genitalium at >0.3 uM; assay type: functional, organism-based; conditions: Mycoplasmoides genitalium
Mycoplasma genitalium [16] = test: Antibacterial activity against Mycoplasma genitalium Sea-2 assessed as bacterial growth inhibition by qPCR analysis; assay type: functional, organism-based; conditions: Mycoplasmoides genitalium
[17] = Selectivity index, ratio of IC50 for human WIL-2N cells to IC50 for Mycoplasma genitalium G37; assay type: toxicity; conditions: read-out: Ratio IC50
[18] = Selectivity index, ratio of IC50 for human HepG2 cells to IC50 for Mycoplasma genitalium G37; assay type: toxicity; conditions: read-out: Ratio IC50
Mycoplasma genitalium [19] = test: Antibacterial activity against Mycoplasma genitalium G37 assessed as bacterial growth inhibition by qPCR analysis; assay type: functional, organism-based; conditions: Mycoplasmoides genitalium
[20] = Metal chelating activity assessed as compound-manganese complex formation by UV-Vis spectrophotometric analysis
[21] = Selectivity index, ratio of IC50 for African green monkey Vero cells to IC50 for Mycoplasma genitalium G37; assay type: toxicity; conditions: read-out: Ratio IC50
[22] = Metal chelating activity assessed as compound-Fe3+ complex formation by UV-Vis spectrophotometric analysis
Mycoplasma genitalium [23] = test: Antibacterial activity against Mycoplasma genitalium at 0.28 to 1.12 measured after >1 month; assay type: functional, organism-based; conditions: Mycoplasmoides genitalium; time > 1.0 months
Mycoplasma genitalium [24] = test: Antibacterial activity against Mycoplasma genitalium assessed as bacterial growth inhibition in SP-4 broth medium supplemented with DPP at 0.08 to 0.64 uM measured after 2 hrs by absorbance based analysis; assay type: functional, organism-based; conditions: Mycoplasmoides genitalium, dose 0.08-0.64 µM
Mycoplasma genitalium [25] = test: Antibacterial activity against Mycoplasma genitalium assessed as bacterial growth inhibition in SP-4 broth medium supplemented with TPEN and zinc chloride at 0.64 uM measured after 2 hrs by absorbance based analysis; assay type: functional, organism-based; conditions: Mycoplasmoides genitalium
Mycoplasma genitalium [26] = test: Antibacterial activity against Mycoplasma genitalium Sea-1 assessed as bacterial growth inhibition by qPCR analysis; assay type: functional, organism-based; conditions: Mycoplasmoides genitalium
[27] = Metal chelating activity assessed as compound-copper complex formation by UV-Vis spectrophotometric analysis
Mycoplasma genitalium [28] = test: Antibacterial activity against Mycoplasma genitalium Sea-2 assessed as bacterial growth inhibition incubated for 7 days by microbroth dilution assay; assay type: functional; conditions: Mycoplasmoides genitalium, Sea-2, 168 h; time 7 day
Mycoplasma genitalium [29] = test: Antibacterial activity against Mycoplasma genitalium M2300 assessed as bacterial growth inhibition incubated for 7 days by microbroth dilution assay; assay type: functional; conditions: Mycoplasmoides genitalium, M2300, 168 h; time 7 day
[30] = Metal chelating activity assessed as compound-Cobalt complex formation by UV-Vis spectrophotometric analysis

Compound: C[C@@H]1C[C@H](C)[C@@H](c2c(O)cc[nH]c2=O)[C@H](C)[C@@](C)(O)C1 [DEOXYAKANTHOMYCIN]
MIC (Mycoplasma genitalium [1]): > 80 µM

Compound: COn1ccc(O)c([C@@H]2[C@@H](C)C[C@@H](C)C[C@](C)(O)[C@H]2C)c1=O
MIC (Mycoplasma genitalium [1]): > 80 µM

Compound: C[C@@H]1C[C@H](C)[C@H]2c3c(cc[nH]c3=O)O[C@H](C)[C@@]2(C)C1
MIC (Mycoplasma genitalium [1]): > 80 µM

Compound: C=C[C@H]1C[C@@H](C)C[C@@H](C)[C@@H]1c1c(O)ccn(O)c1=O
MIC (Mycoplasma genitalium [1]): > 95 µM

Continued, in another order:

Activity [2]: inactive
MIC (Mycoplasma genitalium [6]): 0.16 µM (≈ 0.0444 µg/mL)
Activity [7]: inactive
Activity [10]: inactive
Activity [11]: inactive
MIC (Mycoplasma genitalium [14]): 0.16 µM (≈ 0.0444 µg/mL)
MIC (Mycoplasma genitalium [1]): 0.32 µM (≈ 0.0888 µg/mL)
Activity [20]: inactive
Activity [22]: Active
Activity [27]: inactive
MIC (Mycoplasma genitalium [28]): 0.32 µM (≈ 0.0888 µg/mL)
MIC (Mycoplasma genitalium [29]): 0.16 µM (≈ 0.0444 µg/mL)
Activity [30]: inactive
Compound: C[C@@H]1C[C@H](C)[C@H]2c3c(ccn(O)c3=O)O[C@H](C)[C@@]2(C)C1
selectivity ratio [3]: > 32
Activity (Mycoplasma genitalium [4]): Active
Activity (Mycoplasma genitalium [5]): inactive
Activity (Mycoplasma genitalium [8]): Active
Activity (Mycoplasma genitalium [9]): 1.8 mM
Activity (Mycoplasma genitalium [12]): 84.2%
Activity (Mycoplasma genitalium [13]): >99.9%
Activity (Mycoplasma genitalium [15]): inactive
IC50 (Mycoplasma genitalium [16]): 0.06 µM
IC90 (Mycoplasma genitalium [16]): 0.11 µM
selectivity ratio [17]: > 32
selectivity ratio [18]: > 32
IC50 (Mycoplasma genitalium [19]): 0.09 µM
IC90 (Mycoplasma genitalium [19]): 0.12 µM
selectivity ratio [21]: > 32
Activity (Mycoplasma genitalium [23]): inactive
Activity (Mycoplasma genitalium [24]): inactive
Activity (Mycoplasma genitalium [25]): Active
IC50 (Mycoplasma genitalium [26]): 0.1 µM
IC90 (Mycoplasma genitalium [26]): 0.12 µM

MIC (Mycoplasma genitalium [1]): > 80 µM
Compound: COn1ccc2c(c1=O)[C@@H]1[C@@H](C)C[C@@H](C)C[C@]1(C)[C@@H](C)O2
